Measured values from patent publication EP1366743A1, “Use of a derivative of 7-oxydated DHEA for treating dry skin” (L'OREAL, priority 2002, dated 2003).

Test system: sébocytes humains immortalisés en culture, issus de la lignée SZ95
Test: Lipogenesis: total lipids produced by cultured immortalised human sebocytes (Nile Red fluorescence)
Format: cell-based
Conditions: for activation at 10 µM / activation at 1 µM: 48 h, total lipids, variation versus control, 2 days of treatment, confluent SZ95 sebocytes; for activation at 10 µM: 10^-5 M in 0,1% DMSO, read-out: % de variation à 10^-5 M; for activation at 1 µM: 10^-6 M in 0,1% DMSO, read-out: % de variation à 10^-6 M
Description: La 7α-OH DHEA et la 3-O-acétyl 7-benzoyloxy DHEA ont été testées sur un modèle de sébocytes humains immortalisés en culture, issus de la lignée SZ95 décrite dans Zouboulis, C.C., Seltmann, H., Neitzel, H. & Orfanos, C.E., Establishment and Characterization of an Immortalized Human Sebaceous Gland Cell Line, J. Invest. Dermatol., 113, 1011-1020 (1999).
Le test a consisté à mesurer la quantité de lipides produite par les sébocytes de la lignée (à confluence), en présence ou non d'agents actifs dilués dans le DMSO à 10^-5 M et 10^-6 M, de telle sorte que la quantité finale de DMSO dans le milieu de culture soit de 0,1%. Après 2 jours de traitement, les cellules adhérentes sont traitées par du Rouge de Nile (1µg/ml). Le contenu en lipides est ensuite quantifié par mesure de la fluorescence du colorant (deux couples d'excitation/émission : 485-540nm pour les lipides neutres et 540-620 nm pour les lipides non neutres). Les résultats sont donnés pour les lipides totaux (combinaison des deux mesures).
L'expérience est réalisée en sixplicate (produits dosés) ou dodeplicate (témoin) en plaque de 96 puits.
Le Tableau ci-dessous rassemble les résultats obtenus, en pourcentage de variation par rapport au témoin, ainsi que les coefficients p fournis par le test de Student et qui reflètent la significativité des mesures.

Q: Which results are given for `CC(=O)O[C@H]1CC[C@@]2(C)C(=CC(OC(=O)c3ccccc3)[C@@H]3[C@@H]2CC[C@]2(C)C(=O)CC[C@@H]32)C1` (some centres unmarked) [3-O-acétyl 7-benzoyloxy DHEA]?
A: activation at 10 µM: 15%; activation at 1 µM: 15%; lipogénèse (result in words, 10^-6 M): efficace

Q: With `C[C@]12CC[C@H](O)CC1=C[C@@H](O)[C@@H]1[C@@H]2CC[C@]2(C)C(=O)CC[C@@H]12` [7α-OH DHEA] as the molecule, how does the activation at 10 µM read?
A: The activation at 10 µM was 15%.

Q: What about the activation at 1 µM of the same molecule?
A: Its activation at 1 µM is 6%.
